According to patent publication EP0171968A1, “Use of a phospholipid derivative” (Takeda Chemical Industries, Ltd., priority 1984, dated 1986):
≈ marks a conversion by molar mass, not a printed value.

Legend:
[1] = test system: Meth A cells; assay: Necrotic effect against the Meth A tumor tissue; format: in vivo, Balb/c mice; details: given intravenously, 7 days after transplantation, observed after 24 hours
[2] = test system: S 180 cells; assay: Antitumor effect against mice bearing S 180 tumor (intraperitoneal inoculation, survival); format: in vivo, ICR mice; details: 0.3 mg/mouse once a day, three times in total; for T/C (%) (life-span prolongation ratio against the control group): control group average survival 12.2 days; for Number of mice surviving for 50 days: group of five ICR mice inoculated intraperitoneally with 1 x 10^5 S 180 cells
Method: ICR mice (a group consisting of five mice) were inoculated intraperitoneally with 1 x 10^5 S 180 cells per mouse, and then'given 0.3 mg/mouse of l-O-octadecyl-2-0-(morpholinocarbonyl)glycero-3-phosphocholine (Compound No. 1) dissolved in physiological saline once a day, three times in total, on the day of the inoculation and on the next day and the second day after the inoculation. The average of the survival days for the control group (consisting of 5 mice) was 12.2 days, whereas the number of surviving' mice in the drug-treated group on the 50th day and the life-span prolongation ratio (T/C) against the control group, are shown in Table 1.
In a similar manner, a test was carried out with 1-O-octadecyl-2-O-methylglycero-3-phosphocholine used as a control drug (A), with the results being shown below.

[3] = test system: human myelocytic leukemia cells HL-60; assay: Growth inhibiting effect and differentiation inducing activity on HL-60 (method of R. Gallo et al.); format: cell-based; details: HL-60 cells
Method: According to the method of R. Gallo et al. described in Blood 54 (3), 713 (1979), the growth inhibiting effect (IG effect)and differentiation inducing activity of 1-0-octadecyl-2-O-(morpholinocarbonyl)glycero-3-phosphocholine against human myelocytic leukemia cells HL-60 were assayed.

[4] = test system: rat platelet; assay: Platelet aggregation; format: cell-based; details: concentration of 3 x 10-^5 M
From the text: Neither l-0-octadecyl-2-0-(morpholinocarbonyl)glycero-3-phosphocholine nor 3-octadecyloxy-2-(morpholino-carbonyloxy)propyl 2-thiazolioethyl phosphate at a concentration of 3 x 10-^5 M caused platelet aggregation against rat platelet.

[5] = test system: S 180 cells; assay: Activity toward mice bearing the Sarcoma 180 tumor (subcutaneous transplant, tumor weight); format: in vivo, ICR mice; details: 25 mg/kg injected into the tumor every four days from the 7th day, four times; for Proliferation inhibition ratio (%): 24th day, against control group; for Weight of tumor: measured on the 24th day
Method: ICR mice (male, 8-week-old, a group consisting of 5 mice), as divided into two groups, were transplanted subcutaneously with 1 x 10^6 S 180 cells per mouse, respectively. One group was treated with the drug by injection into the tumor every four days commencing with the 7th day after the transplantation, four times in total. On the 24th day, the average tumor weight for the drug-treated group was measured, and the ratio (the tumor proliferation inhibition ratio) against that for the control group (not treated with the drug) was calculated.

| Structure (SMILES) | T/C (%) (life-span prolongation ratio against the control group) [2] | Number of mice surviving for 50 days [2] | caused platelet aggregation against rat platelet [4] | Proliferation inhibition ratio (%) [5] [%] | Weight of tumor [5] [g] | also measured |
| --- | --- | --- | --- | --- | --- | --- |
| CCCCCCCCCCCCCCCCCCOCC(COP(=O)([O-])OCC[N+](C)(C)C)OC(=O)N1CCCC1 (centres unmarked) [1-O-octadecyl-2-O-(pyrrolidinocarbonyl)glycero-3-phospho-choline] | – | – | – | – | – | change of the tumor tissue (necrosis) ([1]; 25 mg/kg): necrosis through bleeding |
| CCCCCCCCCCCCCCCCCCOCC(COP(=O)([O-])OCC[N+](C)(C)C)OC(=O)N1CCOCC1 (stereo not drawn) [Compound 1, l-O-octadecyl-2-0-(morpholinocarbonyl)glycero-3-phosphocholine] | >336 | 2 | Neither | – | – | change of the tumor tissue (necrosis) ([1]; 1.25 mg/kg): necrosis through bleeding; differentiation inducing activity ([3]; concentration of 1-2 ug/ml): mild differentiation inducing activity; IC50 ([3]; Homo sapiens, read-out: IG effect on HL-60 (GD50)): 0.6 µg/mL (≈ 0.963 µM) |
| CCCCCCCCCCCCCCCCCCOCC(COP(=O)([O-])OCC[N+](C)(C)C)OC (centres unmarked) [Control drug A, 1-O-octadecyl-2-O-methylglycero-3-phosphocholine, reference compound] | 162 | 0 | – | – | – | – |
| CCCCCCCCCCCCCCCCCCOCC(COP(=O)([O-])OCC[N+](C)(C)C)OC(=O)N1CCCCC1 (centres unmarked) [Drug 2, 1-O-Octadecyl-2-O-(piperidinocarbonyl)glycero-3-phosphocholine] | – | – | – | 52.4 | 0.71 | – |
| CCCCCCCCCCCCCCCCCCOCC(COP(=O)([O-])OCC[n+]1ccsc1)OC(=O)N1CCOCC1 (centres unmarked) [Drug 3, 3-Octadecyloxy-2-(morpholinocarbonyloxy)propyl 2-thiazolioethyl phosphate] | – | – | Neither | 73.9 | 0.39 | – |
